Literature values in patent publication US20140045904A1, “NIACIN FORMULATIONS AND METHODS WITH REDUCED FLUSHING SIDE EFFECT” (priority 2010, published 2014).

Experiments:
niacin-induced flushing = conditions: rofecoxib: single dose of 500 mg immediate-release niacin; laropiprant: clinical trials; aspirin: oral niacin
rat macrophages = conditions: dual inhibitor of COX-1 and COX-2
HDL cholesterol = conditions: low doses of niacin (300-1,000 mg/day)
prostacyclin (PGI-2) = conditions: ingestion of oral niacin
PGD-2 = conditions: niacin given orally (500 mg)
COX-2 = COX-2 (Homo sapiens, UniProt P35354); conditions: while sparing COX-1
COX-2, sequence (P35354 18-604): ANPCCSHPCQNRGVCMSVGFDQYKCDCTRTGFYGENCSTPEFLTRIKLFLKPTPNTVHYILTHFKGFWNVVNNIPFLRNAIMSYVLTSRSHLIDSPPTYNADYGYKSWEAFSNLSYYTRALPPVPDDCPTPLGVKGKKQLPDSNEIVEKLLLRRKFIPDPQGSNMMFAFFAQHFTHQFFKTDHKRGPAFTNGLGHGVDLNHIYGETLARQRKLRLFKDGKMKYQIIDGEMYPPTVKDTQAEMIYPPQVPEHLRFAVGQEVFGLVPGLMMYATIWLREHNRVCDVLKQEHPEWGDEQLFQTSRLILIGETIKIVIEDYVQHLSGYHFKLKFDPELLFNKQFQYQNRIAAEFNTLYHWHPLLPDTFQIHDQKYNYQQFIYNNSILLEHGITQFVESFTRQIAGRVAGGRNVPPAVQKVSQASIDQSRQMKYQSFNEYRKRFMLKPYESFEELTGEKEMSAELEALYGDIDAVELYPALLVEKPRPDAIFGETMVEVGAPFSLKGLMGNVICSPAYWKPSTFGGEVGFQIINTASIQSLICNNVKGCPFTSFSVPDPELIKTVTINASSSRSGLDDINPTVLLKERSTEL

## CC(=O)Oc1ccccc1C(=O)O [aspirin]
niacin-induced flushing
  effect of pretreatment on flushing from niacin: can suppress the flush

## COc1ccc2c(c1)c(CC(=O)O)c(C)n2C(=O)c1ccc(Cl)cc1 [indomethacin]
Rat macrophages
  endogenous production of PGE-2 and PGD-2: suppressed

## CS(=O)(=O)c1cc(F)cc2c3c(n(Cc4ccc(Cl)cc4)c12)[C@@H](CC(=O)O)CC3 [laropiprant]
niacin-induced flushing
  effect of pretreatment on flushing from niacin: substantially reduced, but fell far short of eliminating

## O=C(O)c1cccnc1 [niacin, pyridine-3-carboxylic acid]
HDL cholesterol
  raise of HDL cholesterol: up to 45%
Prostacyclin (PGI-2)
  increase in prostacyclin (PGI-2): 2 fold
  major urinary metabolite of PGE-2 (PGE-M): does not increase
PGD-2
  increase of levels of the major metabolite of PGD-2: 400 to 800 fold
  time to decline of PGD-2 metabolite to near normal levels: 2 to 4 h
  time to increase of PGD-2 metabolite after ingestion: 12 to 45 min

## CS(=O)(=O)c1ccc(C2=C(c3ccccc3)C(=O)OC2)cc1 [rofecoxib]
COX-2
  inhibition of COX-2 in vivo: about 90%
niacin-induced flushing
  effect of pretreatment on flushing from niacin: did not result in a reduction of flushing
